Assay results reported in patent US9708336B2, “Metallo-beta-lactamase inhibitors” (priority 2014, dated 2017).
Read-outs that look alike come from different tables or passages of the source.

How the values were obtained:
NDM-1 = NDM-1 (Klebsiella pneumoniae, UniProt C7C422); test: biochemical; assay type: biochemical; settings: read-out: NDM-1 IC50
IMP-1 = IMP-1 (Serratia marcescens, UniProt P52699); test: biochemical; assay type: biochemical; settings: read-out: IMP-1 IC50
VIM-1 = VIM-1 (Pseudomonas aeruginosa (strain ATCC 15692 / DSM 22644 / CIP 104116 / JCM 14847 / LMG 12228 / 1C / PRS 101 / PAO1), UniProt A0A0F7KYQ8); test: Enzyme activity: determination of IC50, fluorescence assay with CCF2-FA substrate (VIM-1); assay type: biochemical
[1] = system: Escherichia coli expressing NDM-1 (CLB30016); test: Antibiotic potentiation activity: synergistic concentration (MITC95) with imipenem, OD600 growth; assay type: cell-based
Outline: (§1)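 Imipenem (4 μg/ml final; 1 μg/ml as an option) was combined with compound against isolates diluted 1:100 from saline suspensions into 1.1× CAMHB. Growth was assessed by absorbance at 22–24 h, 35 °C.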

[2] = system: Klebsiella pneumoniae expressing VIM-1 (IHMA599644); test: as above; assay type: cell-based
Outline: as §1

[3] = system: Serratia marcescens expressing IMP-1 (CL5741); test: as above; assay type: cell-based
Outline: as §1

[4] = NDM-1 enzyme, CCF2-FA fluorescence assay
[5] = IMP-1 enzyme, CCF2-FA fluorescence assay
[6] = VIM-1 enzyme, CCF2-FA fluorescence assay, read-out: VIM-1 IC50
[7] = Escherichia coli expressing NDM-1 (CLB30016), 95% growth inhibition
[8] = Klebsiella pneumoniae expressing VIM-1 (IHMA599644), 95% growth inhibition
[9] = Serratia marcescens expressing IMP-1 (CL5741), 95% growth inhibition
[10] = NDM-1 enzyme, CCF2-FA substrate
[11] = IMP-1 enzyme, CCF2-FA substrate
[12] = VIM-1 enzyme, CCF2-FA substrate, read-out: VIM-1 IC50
[13] = (CLB30016, NDM-1), 95% growth inhibition
[14] = Klebsiella pneumoniae IHMA599644 (VIM-1), 95% growth inhibition
[15] = Serratia marcescens CL5741 (IMP-1), 95% growth inhibition
[16] = fluorescence assay with CCF2-FA substrate
[17] = concentration giving 95% inhibition of bacterial growth

Sequence of NDM-1 (C7C422 whole entry, looked up, species assumed): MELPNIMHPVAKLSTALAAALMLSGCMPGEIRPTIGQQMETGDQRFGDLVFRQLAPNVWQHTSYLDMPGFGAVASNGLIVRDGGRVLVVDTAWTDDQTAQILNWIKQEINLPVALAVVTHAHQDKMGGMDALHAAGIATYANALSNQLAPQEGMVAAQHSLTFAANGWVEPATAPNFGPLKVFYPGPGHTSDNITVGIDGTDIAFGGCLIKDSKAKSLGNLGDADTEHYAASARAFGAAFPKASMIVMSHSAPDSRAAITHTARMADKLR
Sequence of IMP-1 (P52699 whole entry, looked up): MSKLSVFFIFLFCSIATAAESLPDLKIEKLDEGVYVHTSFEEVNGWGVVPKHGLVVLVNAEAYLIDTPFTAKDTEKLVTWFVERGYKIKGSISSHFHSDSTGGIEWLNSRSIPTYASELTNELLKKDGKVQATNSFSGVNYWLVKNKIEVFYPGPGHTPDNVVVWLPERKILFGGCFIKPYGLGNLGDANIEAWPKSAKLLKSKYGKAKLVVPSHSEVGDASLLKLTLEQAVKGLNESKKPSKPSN

Row | Structure (SMILES) | IC50 (NDM-1; [4]) [nM] | IC50 (IMP-1; [5]) [nM] | IC50 (VIM-1; [6]) [nM] | Escherichia coli MITC95 [1, 7] [µM] | Klebsiella pneumoniae MITC95 [2, 8] [µM] | Serratia marcescens MITC95 [3, 9] [µM] | IC50 (NDM-1; [10]) [nM] | IC50 (IMP-1; [11]) [nM] | IC50 (VIM-1; [12]) [nM] | Escherichia coli MITC95 [1, 13] [µM] | Klebsiella pneumoniae MITC95 [2, 14] [µM] | Serratia marcescens MITC95 [3, 15] [µM] | also measured
1 | NS(=O)(=O)c1c(C(F)(F)F)ccc(-c2ccnc3ccccc23)c1-c1nn[nH]n1 [Example 273, 3-(quinolin-4-yl)-2-(2H-tetrazol-5-yl)-6-(trifluoromethyl)benzenesulfonamide] | 0.581 | 3.21 | 0.165 | 4.688 | 6.25 | 0.3906 |  |  |  |  |  |  | 
2 | Nc1ccc(-c2ccc(C[C@H]3CC[C@@H](N)CC3)c(S(N)(=O)=O)c2-c2nnn[nH]2)cn1 [Example 574, 6-(((1s,4s)-4-aminocyclohexyl)methyl)-3-(6-aminopyridin-3-yl)-2-(2H-tetrazol-5-yl)benzenesulfonamide] |  |  |  |  |  |  | 1.5 | 35.9 | 7.94 | 0.3906 | 3.125 | 3.125 | 
3 | NS(=O)(=O)c1c(C(F)(F)F)ccc(-c2ccc(C3CN(CCC4CCNCC4)C3)cc2)c1-c1nnn[nH]1 [Example 803, 4′-[1-(2-piperidin-4-ylethyl)azetidin-3-yl]-2-(1H-tetrazol-5-yl)-4-(trifluoromethyl)biphenyl-3-sulfonamide] |  |  |  |  |  |  |  |  |  |  |  |  | IC50 (NDM-1; [16]): 4.87 nM; IC50 (IMP-1; [16]): 13 nM; IC50 (VIM-1; VIM-1 IC50, fluorescence assay with CCF2-FA substrate): 13.2 nM; Escherichia coli MITC95 ([1]; CLB30016 (NDM-1), 95% inhibition of bacterial growth): 6.25 µM; Klebsiella pneumoniae MITC95 ([2]; IHMA599644 (VIM-1), 95% inhibition of bacterial growth): 100 µM; Serratia marcescens MITC95 ([3]; CL5741 (IMP-1), 95% inhibition of bacterial growth): 6.25 µM
4 | NS(=O)(=O)c1c(C(F)(F)F)ccc(N2CCC[C@@H](O)C2)c1-c1nnn[nH]1 [Example 665, 3-[(3R)-3-hydroxypiperidin-1-yl]-2-(1H-tetrazol-5-yl)-6-(trifluoromethyl)benzenesulfonamide] |  |  |  |  |  |  | 7.48 | 29.8 | 0.999 | 1.563 | 4.688 | 1.172 | 
5 | NS(=O)(=O)c1cccc(-c2ccc(CN3CCC(CO)C3)cc2)c1-c1nnn[nH]1 (stereo in doubt) [Example 391, 4′-{[(3S)-3-(hydroxymethyl)pyrrolidin-1-yl]methyl}-2-(1H-tetrazol-5-yl)biphenyl-3-sulfonamide] | 18.9 | 348 |  | 1.172 | 50 | 2.344 |  |  |  |  |  |  | IC50 (VIM-1; VIM-1 IC50, VIM-1 enzyme, CCF2-FA fluorescence assay): 401 nM
6 | NCC1CCC(N[C@H]2CC[C@H](c3ccc(C(F)(F)F)c(S(N)(=O)=O)c3-c3nnn[nH]3)CC2)CC1 (stereo partly drawn) [Example 699, 3-(4-{[4-(aminomethyl)cyclohexyl]amino}cyclohexyl)-2-(1H-tetrazol-5-yl)-6-(trifluoromethyl)benzene sulfonamide] |  |  |  |  |  |  | 18 | 58.8 | 4.72 | 3.125 | 6.25 | 6.25 | 
7 | NS(=O)(=O)c1cccc(-c2csc(-c3ccncc3)n2)c1-c1nnn[nH]1 [Example 409, 3-[2-(4-pyridyl)thiazol-4-yl]-2-(1H-tetrazol-5-yl)benzenesulfonamide] | 26.9 | 445 | 237 | 1.563 | >200 | 12.5 |  |  |  |  |  |  | 
8 | Nc1nc2c(-c3ccc(C(F)CO)c(S(N)(=O)=O)c3-c3nn[nH]n3)cccc2s1 (stereo not drawn) [Example 532, 3-(2-Aminobenzo[d]thiazol-4-yl)-6-(1-fluoro-2-hydroxyethyl)-2-(2H-tetrazol-5-yl)benzenesulfonamide] |  |  |  |  |  |  | 0.598 | 6.42 | 3.96 | 12.5 | 12.5 | 12.5 | 
9 | NS(=O)(=O)c1cccc(-c2ccc(CN3CCC3C(=O)O)cc2)c1-c1nnn[nH]1 (stereo not drawn) [Example 378, 1-{[3′-sulfamoyl-2′-(1H-tetrazol-5-yl)biphenyl-4-yl]methyl}azetidine-2-carboxylic acid] | 24.6 | 262 | 407 | 3.125 | 50 | 6.25 |  |  |  |  |  |  | 
10 | N#Cc1cc(-c2ccc(C(F)(F)F)c(S(N)(=O)=O)c2-c2nnn[nH]2)c2[nH]c(N)nc2c1 [Example 569, 3-(2-amino-5-cyano-1H-benzo[d]imidazol-7-yl)-2-(1H-tetrazol-5-yl)-6-(trifluoromethyl)benzenesulfonamide] |  |  |  |  |  |  | 0.215 | 1.62 | 0.309 | 6.25 | 6.25 | 3.125 | 
11 | NS(=O)(=O)c1cccc(-c2ccc(NCCO)nc2)c1-c1nn[nH]n1 [Example 426, 3-(6-((2-hydroxyethyl)amino)pyridin-3-yl)-2-(2H-tetrazol-5-yl)benzenesulfonamide] | 9.28 | 353 | 260 | 0.4063 | 25 | 9.375 |  |  |  |  |  |  | 
12 | CC(CO)(CO)c1ccc(-c2ccc(C(F)(F)F)c(S(N)(=O)=O)c2-c2nnn[nH]2)cc1 [Example 725, 4′-[2-hydroxy-1-(hydroxymethyl)-1-methylethyl]-2-(1H-tetrazol-5-yl)-4-(trifluoromethyl)biphenyl-3-sulfonamide] |  |  |  |  |  |  | 0.767 | 0.92 | 1.27 | 12.5 | 25 | 6.25 | 
13 | NS(=O)(=O)c1c(C(F)(F)F)ccc([C@H]2CC[C@H](NC3CCNC3)CC2)c1-c1nnn[nH]1 (stereo partly drawn) [Example 696, 3-[4-(pyrrolidin-3-ylamino)cyclohexyl]-2-(1H-tetrazol-5-yl)-6-(trifluoromethyl)benzene sulfonamide] |  |  |  |  |  |  | 1.09 | 5.26 | 2.38 | 0.3906 | 3.125 | 1.563 | 
14 | NS(=O)(=O)c1cccc(-c2cccc3sc(Br)nc23)c1-c1nnn[nH]1 [Example 421, 3-(2-Bromobenzo[d]thiazol-4-yl)-2-(1H-tetrazol-5-yl)benzenesulfonamide] | 0.291 | 18.8 | 2.3 | 3.125 | >200 | 25 |  |  |  |  |  |  | 
15 | NC1(CN2CCC(c3ccc(-c4ccc(C(F)(F)F)c(S(N)(=O)=O)c4-c4nnn[nH]4)cc3)CC2)CC1 [Example 672, 4′-{1-[(1-aminocyclopropyl)methyl]piperidin-4-yl}-2-(1H-tetrazol-5-yl)-4-(trifluoromethyl)biphenyl-3-sulfonamide] |  |  |  |  |  |  | 3.66 | 2.51 |  | 6.25 | 75 | 4.688 | IC50 (VIM-1; VIM-1 IC50, VIM-1 enzyme, CCF2-FA substrate): 3.38 nM
16 | NS(=O)(=O)c1cccc(Cc2ccccc2)c1-c1nnn[nH]1 [Example 162, 3-benzyl-2-(1H-tetrazol-5-yl)benzenesulfonamide] |  |  |  |  |  |  |  |  |  |  |  |  | IC50 (NDM-1; [16]): 18.9 nM; IC50 (IMP-1; [16]): 571 nM; IC50 (VIM-1; fluorescence assay with CCF2-FA substrate, read-out: VIM-1 IC50): 691 nM; Escherichia coli expressing NDM-1 (CLB 30016) MITC95 [1, 17]: 1.563 µM; Klebsiella pneumoniae expressing VIM-1 (IHMA 599644) MITC95 [2, 17]: 200 µM; Serratia marcescens expressing IMP-1 (CL5741) MITC95 [3, 17]: 12.5 µM
17 | NC[C@H]1CC[C@H](Cc2ccc(-c3ccc(C4CCNCC4)cc3)c(-c3nn[nH]n3)c2S(N)(=O)=O)CC1 [Example 457, 4-(((1r,4r)-4-(aminomethyl)cyclohexyl)methyl)-4′-(piperidin-4-yl)-2-(2H-tetrazol-5-yl)-[1,1′-biphenyl]-3-sulfonamide] | 1.1 | 3.05 | 0.803 | 0.3906 | 1.172 | 0.1953 |  |  |  |  |  |  | 
18 | NCCCCNc1nc2c(-c3cccc(S(N)(=O)=O)c3-c3nnn[nH]3)cccc2s1 [Example 642, 3-[2-(4-aminobutylamino)-1,3-benzothiazol-4-yl]-2-(1H-tetrazol-5-yl)benzenesulfonamide] |  |  |  |  |  |  | 1.01 | 51.9 | 9 | 1.563 | 50 | 25 | 
